Where two headings read alike, the source gives them in different places.
How the values were obtained:
HeLa cells = assay: MTT antiproliferative assay, HeLa; format: cell-based, human; settings: read-out: In vitro antiproliferative activity IC50, HeLa
Description: (§1) IC50 values of the test compounds against A549, MCF-7, Hela and HepG2 cells were obtained from State Key Laboratory of Pharmaceutical Biotechnology, Nanjing University, and were determined by a standard (MTT)-based colorimetric assay (Beyotime Inst. Biotech., Nanjing, China). Tumor cell lines were grown to mid-log phase and then diluted to […] making sure they were seeded in 96-well plates (Philas, Nanjing, China) at a density of 5 × 10^3–1 × 10^4 cells per well. The outer wells containing 1 × PBS solution of the plate are not used for the assay to avoid the possibility of edge effects. The plate was incubated at 37 °C in a 5% CO2 incubator in DMEM containing 10% fetal bovine serum (FBS, Gibco, Waltham, MA, USA) for 24 h. Then, we added a 100-μL series concentration of drug-containing medium into the wells to maintain the final concentration of drug as 100, 10, 1 and 0.1 μmol/L. After 12 h, cell survival was determined by the addition of a MTT (3-(4,5-dimethylthiazol-2-yl)-2,5-diphenyl trtrazolium bromide) solution (10 μL of 5 mg/mL MTT in 1 × PBS). We waited for 4 h proliferation, discarded the medium and quickly added 150 μL DMSO per well, shaking the plates well for 10 min to ensure complete dissolution. Optical absorbance was measured at 570 nm on a microplate reader (Bio-Rad, Hercules, CA, USA). Survival ratios are expressed in percentages with respect to untreated cells. The experiments were replicated at least three times to verify the methodology reproducibility when using the above-mentioned conditions.

A549 cells = assay: MTT antiproliferative assay, A549; format: cell-based, human; settings: read-out: In vitro antiproliferative activity IC50, A549
Description: as §1

HepG2 cells = assay: MTT antiproliferative assay, HepG2; format: cell-based, human; settings: read-out: In vitro antiproliferative activity IC50, HepG2
Description: as §1

[1] = tested on: 293T human kidney epithelial cells; assay: Cytotoxicity test (MTT) on 293T cells; settings: read-out: median cytotoxic concentration CC50; 293T cells, MTT assay, 24 h
Description: (§2) The cytotoxic activity in vitro was measured by the colorimetric MTT assay. […] For the cytotoxicity assay, 20 μL of MTT (5 mg/mL) was added per well 4 h before the end of the incubation. After removing the supernatant, 200 μL DMSO was added to dissolve the formazan crystals. The absorbance at λ 570 nm was read on an LX300 Epson Diagnostic microplate reader, untreated cells were used as negative controls.

MCF-7 cells = assay: MTT antiproliferative assay, MCF-7; format: cell-based, human
Description: as §1

[2] = target: epidermal growth factor receptor (EGFR) (Homo sapiens, UniProt P00533); assay: EGFR kinase inhibition, solid-phase ELISA assay
Chain of epidermal growth factor receptor (EGFR) (P00533 25-1210): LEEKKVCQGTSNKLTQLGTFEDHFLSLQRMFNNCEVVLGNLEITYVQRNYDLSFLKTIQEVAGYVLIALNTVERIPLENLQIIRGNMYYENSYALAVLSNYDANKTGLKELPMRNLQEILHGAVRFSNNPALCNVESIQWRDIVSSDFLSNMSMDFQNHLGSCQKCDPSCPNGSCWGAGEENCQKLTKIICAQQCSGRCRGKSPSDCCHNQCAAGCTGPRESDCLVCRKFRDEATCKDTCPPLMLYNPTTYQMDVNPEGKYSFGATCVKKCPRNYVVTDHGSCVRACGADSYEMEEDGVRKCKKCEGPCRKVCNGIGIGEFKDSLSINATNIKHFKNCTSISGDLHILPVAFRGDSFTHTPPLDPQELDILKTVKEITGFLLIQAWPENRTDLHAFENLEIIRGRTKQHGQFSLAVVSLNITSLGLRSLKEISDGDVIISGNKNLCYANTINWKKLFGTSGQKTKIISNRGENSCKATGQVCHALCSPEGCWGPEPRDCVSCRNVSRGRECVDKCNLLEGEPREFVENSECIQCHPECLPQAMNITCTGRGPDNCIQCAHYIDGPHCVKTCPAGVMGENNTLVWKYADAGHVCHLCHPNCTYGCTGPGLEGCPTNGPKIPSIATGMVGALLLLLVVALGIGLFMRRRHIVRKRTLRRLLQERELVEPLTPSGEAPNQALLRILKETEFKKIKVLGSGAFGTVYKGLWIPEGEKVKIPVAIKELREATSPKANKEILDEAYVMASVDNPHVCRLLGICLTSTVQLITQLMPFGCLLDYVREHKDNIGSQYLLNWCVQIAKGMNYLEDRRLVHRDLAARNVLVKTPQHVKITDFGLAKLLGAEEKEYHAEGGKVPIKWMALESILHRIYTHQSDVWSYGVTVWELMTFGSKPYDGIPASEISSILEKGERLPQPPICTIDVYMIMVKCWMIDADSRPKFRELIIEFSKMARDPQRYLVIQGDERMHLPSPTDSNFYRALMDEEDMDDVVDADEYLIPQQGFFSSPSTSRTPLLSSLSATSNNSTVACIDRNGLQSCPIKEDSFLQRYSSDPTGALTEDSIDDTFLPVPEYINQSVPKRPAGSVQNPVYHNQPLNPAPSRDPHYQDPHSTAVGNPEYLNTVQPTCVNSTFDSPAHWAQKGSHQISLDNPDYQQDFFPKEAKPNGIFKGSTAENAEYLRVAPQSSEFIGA
Description: All these newly synthesized compounds were evaluated for their inhibitory activities against EGFR kinases using a solid-phase ELISA assay.
EGFR tyrosine kinase activity was determined by an enzyme linked-immunosorbent assay (ELISA) in 96-well plates precoated in a 10 mL reaction volume including 4 mL diluted test compounds, 4 mL substrate and 2 mL ATP. […] The plates were then aspirated and washed twice with 200 mL 0.9% (w/v) NaCl, and incorporation of Pi was determined with an LX300 Epson Diagnostic microplate reader. […] The experiments were replicated at least three times to verify the methodology reproducibility when using the above-mentioned conditions.

[3] = Cytotoxicity test (MTT) on 293T cells; settings: human, 293T human kidney epithelial cells
Description: as §2

[4] = read-out: In vitro antiproliferative activity IC50, MCF-7
[5] = Homo sapiens, MCF7, read-out: In vitro antiproliferative activity IC50, MCF-7

Compound | IC50 (HeLa cells) [µM] | IC50 (A549 cells) [µM] | IC50 (HepG2 cells) [µM] | CC50 [1] [µM] | IC50 (MCF-7 cells; [4]) [µM] | IC50 (HeLa cells; Homo sapiens) [µM] | melting point [°C] | IC50 (A549 cells; Homo sapiens) [µM] | IC50 (HepG2 cells; Homo sapiens) [µM] | IC50 [2] [µM] | CC50 at 24 h [3] [µM] | IC50 (MCF-7 cells; [5]) [µM]
(E)-4-(3-(4-Ethylphenyl)-5-(naphthalen-2-yl)-4,5-dihydro-1H-pyrazol-1-yl)-N′-(4-methoxybenzylidene)-benzohydrazide [Compound H21] | 7.93 | 4.54 | 5.06 | 82.6 | 6.33 |  |  |  |  |  |  | 
(E)-N′-(3-Methoxybenzylidene)-4-(3-(4-methoxyphenyl)-5-(naphthalen-2-yl)-4,5-dihydro-1H-pyrazol-1-yl)-benzohydrazide [Compound H6] | 13.2 | 8.32 | 11.5 | 81.8 | 10.2 |  |  |  |  |  |  | 
COc1ccc(/C=N/NC(=O)c2ccc(N3N=C(c4ccc(Br)cc4)CC3c3ccc4ccccc4c3)cc2)cc1 (stereo not drawn) [Compound H32, (E)-4-(3-(4-Bromophenyl)-5-(naphthalen-2-yl)-4,5-dihydro-1H-pyrazol-1-yl)-N′-(4-methoxybenzylidene)-benzohydrazide] |  |  |  |  |  | 25.6 | 238 to 240 | 19.7 | 32.9 | 8.64 | 83.6 | 30.2
COc1cccc(/C=N/NC(=O)c2ccc(N3N=C(c4cc(OC)c(OC)c(OC)c4)CC3c3ccc4ccccc4c3)cc2)c1 (stereo not drawn) [Compound H7, (E)-N′-(3-Methoxybenzylidene)-4-(5-(naphthalen-2-yl)-3-(3,4,5-trimethoxyphenyl)-4,5-dihydro-1H-pyrazol-1-yl)benzohydrazide] |  |  |  |  |  | > 100 | 230 to 232 | 78.3 | > 100 | 26.9 | 92.9 | 95.3
COc1cccc(/C=N/NC(=O)c2ccc(N3N=C(c4ccc(F)cc4)CC3c3ccc4ccccc4c3)cc2)c1 (stereo not drawn) [Compound H11, (E)-4-(3-(4-Fluorophenyl)-5-(naphthalen-2-yl)-4,5-dihydro-1H-pyrazol-1-yl)-N′-(3-methoxybenzylidene)-benzohydrazide] |  |  |  |  |  | 56.2 | 235 to 237 | 45.2 | 60.9 | 14.1 | 86.5 | 60.8
(E)-N′-(4-Methoxybenzylidene)-4-(3-(4-methoxyphenyl)-5-(naphthalen-2-yl)-4,5-dihydro-1H-pyrazol-1-yl)-benzohydrazide [Compound H22] | 12.3 | 7.12 | 10.5 | 84.7 | 9.69 |  |  |  |  |  |  | 
COc1ccc(/C=N/NC(=O)c2ccc(N3N=C(c4ccc(Cl)c(Cl)c4)CC3c3ccc4ccccc4c3)cc2)cc1 (stereo not drawn) [Compound H31, (E)-4-(3-(3,4-Dichlorophenyl)-5-(naphthalen-2-yl)-4,5-dihydro-1H-pyrazol-1-yl)-N'-(4-methoxy-benzylidene)benzohydrazide] |  |  |  |  |  | 31.8 | 243 to 245 | 24.8 | 36.3 | 9.66 | 84.8 | 34.4
COc1cccc(/C=N/NC(=O)c2ccc(N3N=C(c4ccc(Cl)cc4)CC3c3ccc4ccccc4c3)cc2)c1 (stereo not drawn) [Compound H14, (E)-4-(3-(4-Chlorophenyl)-5-(naphthalen-2-yl)-4,5-dihydro-1H-pyrazol-1-yl)-N′-(3-methoxybenzylidene)-benzohydrazide] |  |  |  |  |  | 37.4 | 236 to 238 | 30.1 | 40.2 | 10.3 | 90.1 | 42.5
COc1ccc(/C=N/NC(=O)c2ccc(N3N=C(c4cccc(Cl)c4)CC3c3ccc4ccccc4c3)cc2)cc1 (stereo not drawn) [Compound H29, (E)-4-(3-(3-Chlorophenyl)-5-(naphthalen-2-yl)-4,5-dihydro-1H-pyrazol-1-yl)-N′-(4-methoxybenzylidene)-benzohydrazide] |  |  |  |  |  | 43 | 241 to 243 | 33.2 | 41 | 11.2 | 94.4 | 50.9
COc1cccc(/C=N/NC(=O)c2ccc(N3N=C(c4cccc(Cl)c4)CC3c3ccc4ccccc4c3)cc2)c1 (stereo not drawn) [Compound H13, (E)-4-(3-(3-Chlorophenyl)-5-(naphthalen-2-yl)-4,5-dihydro-1H-pyrazol-1-yl)-N′-(3-methoxybenzylidene)-benzohydrazide] |  |  |  |  |  | 46.4 | 231 to 233 | 35.2 | 45.4 | 11.9 | 93.4 | 51.3
(E)-4-(3-(4-Ethylphenyl)-5-(naphthalen-2-yl)-4,5-dihydro-1H-pyrazol-1-yl)-N′-(3-methoxybenzylidene)-benzohydrazide [Compound H5] | 8.71 | 5.49 | 6.16 | 92.5 | 7.72 |  |  |  |  |  |  | 
COc1cccc(/C=N/NC(=O)c2ccc(N3N=C(c4ccccc4F)CC3c3ccc4ccccc4c3)cc2)c1 (stereo not drawn) [Compound H9, (E)-4-(3-(2-Fluorophenyl)-5-(naphthalen-2-yl)-4,5-dihydro-1H-pyrazol-1-yl)-N′-(3-methoxybenzylidene)-benzohydrazide] |  |  |  |  |  | 63.8 | 235 to 237 | 50.6 | 76.5 | 16.2 | 83.4 | 70.4
COc1cccc(/C=N/NC(=O)c2ccc(N3N=C(c4cc(F)cc(F)c4)CC3c3ccc4ccccc4c3)cc2)c1 (stereo not drawn) [Compound H12, (E)-4-(3-(3,5-Difluorophenyl)-5-(naphthalen-2-yl)-4,5-dihydro-1H-pyrazol-1-yl)-N′-(3-methoxybenzylidene) benzohydrazide] |  |  |  |  |  | 50.3 | 225 to 227 | 41.5 | 52.3 | 12.8 | 80.2 | 55.6
COc1ccc(/C=N/NC(=O)c2ccc(N3N=C(c4ccccc4F)CC3c3ccc4ccccc4c3)cc2)cc1 (stereo not drawn) [Compound H25, (E)-4-(3-(2-Fluorophenyl)-5-(naphthalen-2-yl)-4,5-dihydro-1H-pyrazol-1-yl)-N′-(4-methoxybenzylidene)-benzohydrazide] |  |  |  |  |  | 61.9 | 244 to 246 | 48.6 | 71.1 | 15.3 | 85.6 | 65.5
COc1cccc(/C=N/NC(=O)c2ccc(N3N=C(c4ccc(Br)cc4)CC3c3ccc4ccccc4c3)cc2)c1 (stereo not drawn) [Compound H16, (E)-4-(3-(4-Bromophenyl)-5-(naphthalen-2-yl)-4,5-dihydro-1H-pyrazol-1-yl)-N′-(3-methoxybenzylidene)-benzohydrazide] |  |  |  |  |  | 26.5 | 245 to 247 | 21.8 | 34.2 | 9.01 | 81.9 | 31.9
COc1ccc(/C=N/NC(=O)c2ccc(N3N=C(c4cc(F)cc(F)c4)CC3c3ccc4ccccc4c3)cc2)cc1 (stereo not drawn) [Compound H28, (E)-4-(3-(3,5-Difluorophenyl)-5-(naphthalen-2-yl)-4,5-dihydro-1H-pyrazol-1-yl)-N′-(4-methoxy-benzylidene)benzohydrazide] |  |  |  |  |  | 47.7 | 238 to 240 | 39.4 | 48.1 | 12.3 | 82.2 | 56.1
COc1cccc(/C=N/NC(=O)c2ccc(N3N=C(c4ccc(Cl)c(Cl)c4)CC3c3ccc4ccccc4c3)cc2)c1 (stereo not drawn) [Compound H15, (E)-4-(3-(3,4-Dichlorophenyl)-5-(naphthalen-2-yl)-4,5-dihydro-1H-pyrazol-1-yl)-N′-(3-methoxy-benzylidene)benzohydrazide] |  |  |  |  |  | 33.6 | 234 to 236 | 26.6 | 38.9 | 9.87 | 88.2 | 35.2

Source: article PMC6273578, “Design, Synthesis and Biological Evaluation of Benzohydrazide Derivatives Containing Dihydropyrazoles as Potential EGFR Kinase Inhibitors” (Molecules, 2016)
